Measurements as given in ChEMBL document CHEMBL1201862, “PubChem BioAssay data set” (2004).
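Test compounds were applied to cells in 96-well plates for 48 hours at 5 doses. GI50: concentration for 50% inhibition of growth.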 Activity calls are given as the source filed them. Cut-off read from the data, not from the text of the source: active = GI50 up to about 1.1 µM and inactive = higher.

Key:
Assay in all cases: NCI-60 cell line screen, 48 h
SW-620 = test system: SW-620
DU-145 = test system: DU-145
UACC-257 = test system: UACC-257
A549 = test system: A549
Hs-578T = test system: Hs-578T
SK-OV-3 = test system: SK-OV-3
SK-MEL-5 = test system: SK-MEL-5
HCT-116 = test system: HCT-116
SR = test system: SR
Malme-3M = test system: Malme-3M
OVCAR-3 = test system: OVCAR-3
M14 = test system: M14
SF-295 = test system: SF-295
SF-539 = test system: SF-539
MDA-MB-435 = test system: MDA-MB-435
MDA-MB-231 = test system: MDA-MB-231
SNB-19 = test system: SNB-19
ACHN = test system: ACHN
SNB-75 = test system: SNB-75
CCRF-CEM = test system: CCRF-CEM
786-0 = test system: 786-0
NCI-H23 = test system: NCI-H23
OVCAR-5 = test system: OVCAR-5
A498 = test system: A498
MDA-N = test system: MDA-N
KM12 = test system: KM12
CAKI-1 = test system: CAKI-1
NCI/ADR-RES = test system: NCI/ADR-RES
NCI-H460 = test system: NCI-H460
MOLT-4 = test system: MOLT-4
EKVX = test system: EKVX
HL-60 = test system: HL-60
SN12C = test system: SN12C
UO-31 = test system: UO-31
LOX IMVI = test system: LOX IMVI
T47D = test system: T47D
COLO 205 = test system: COLO 205
OVCAR-4 = test system: OVCAR-4
SK-MEL-28 = test system: SK-MEL-28
HCC 2998 = test system: HCC 2998
HT-29 = test system: HT-29
TK-10 = test system: TK-10
RXF 393 = test system: RXF 393
SF-268 = test system: SF-268
U-251 = test system: U-251
HCT-15 = test system: HCT-15
RPMI-8226 = test system: RPMI-8226
HOP-62 = test system: HOP-62
SK-MEL-2 = test system: SK-MEL-2
IGROV-1 = test system: IGROV-1
K562 = test system: K562
MCF7 = test system: MCF7
UACC-62 = test system: UACC-62
BT-549 = test system: BT-549
HOP-92 = test system: HOP-92
NCI-H522 = test system: NCI-H522
OVCAR-8 = test system: OVCAR-8
PC-3 = test system: PC-3
NCI-H226 = test system: NCI-H226

Measured: GI50

Cc1cc2nc(C=C(C(F)(F)F)C(F)(F)F)oc2cc1C
inactive: SW-620 1.73 µM | DU-145 5.64 µM | UACC-257 > 10 µM | A549 5.12 µM | Hs-578T 3.37 µM | SK-OV-3 > 10 µM | SK-MEL-5 > 10 µM | HCT-116 1.38 µM | SR 2.22 µM | Malme-3M 1.97 µM | OVCAR-3 1.95 µM | M14 2.51 µM | SF-295 > 10 µM | SF-539 2.88 µM | MDA-MB-435 2.14 µM | MDA-MB-231 2.88 µM | SNB-19 3.45 µM | ACHN 5.06 µM | SNB-75 4.55 µM | 786-0 1.96 µM | NCI-H23 2.49 µM | OVCAR-5 3.04 µM | A498 > 10 µM | MDA-N > 10 µM | KM12 > 10 µM | CAKI-1 2.42 µM | NCI/ADR-RES 2.51 µM | NCI-H460 3.92 µM | MOLT-4 1.85 µM | EKVX 3.15 µM | HL-60 2.03 µM | SN12C 2.41 µM | UO-31 4.11 µM | LOX IMVI 2.09 µM | T47D 2.94 µM | OVCAR-4 3.18 µM | SK-MEL-28 > 10 µM | HCC 2998 3.08 µM | HT-29 3.04 µM | TK-10 2.45 µM | RXF 393 2.49 µM | SF-268 3.42 µM | U-251 3.33 µM | RPMI-8226 1.55 µM | HOP-62 3.83 µM | SK-MEL-2 > 10 µM | IGROV-1 2.91 µM | K562 2.25 µM | UACC-62 3.32 µM | BT-549 2.67 µM | HOP-92 > 10 µM | NCI-H522 3.12 µM | OVCAR-8 2.46 µM | PC-3 2.47 µM
active: CCRF-CEM 1.06 µM | COLO 205 0.199 µM | MCF7 0.472 µM
3.37 µM: HCT-15

COc1cccc(CCn2c(N)c(C(=O)O)c3ccc([N+](=O)[O-])cc3c2=O)c1
31.8 µM: HCT-15
inactive: SW-620 > 100 µM | DU-145 40.2 µM | A549 27.8 µM | Hs-578T 33.2 µM | SK-OV-3 35.6 µM | SK-MEL-5 24 µM | HCT-116 25.1 µM | SR 40.1 µM | Malme-3M 37.3 µM | OVCAR-3 29.4 µM | M14 45.3 µM | SF-295 38.1 µM | MDA-MB-435 38.3 µM | MDA-MB-231 16.9 µM | SNB-19 39.1 µM | ACHN 33.7 µM | SNB-75 24.9 µM | CCRF-CEM > 100 µM | 786-0 31.1 µM | NCI-H23 19.5 µM | OVCAR-5 52.2 µM | A498 40.5 µM | MDA-N 30.3 µM | CAKI-1 43.5 µM | NCI/ADR-RES 28.9 µM | NCI-H460 32.8 µM | MOLT-4 54.1 µM | EKVX 51.5 µM | HL-60 > 100 µM | SN12C 21.8 µM | UO-31 31.2 µM | LOX IMVI 35.2 µM | T47D 29.3 µM | COLO 205 20.7 µM | OVCAR-4 54 µM | SK-MEL-28 > 100 µM | HCC 2998 53.2 µM | HT-29 38.5 µM | RXF 393 28.7 µM | SF-268 37.7 µM | U-251 25.9 µM | RPMI-8226 22.9 µM | HOP-62 37.2 µM | SK-MEL-2 22.6 µM | IGROV-1 36.7 µM | K562 67.8 µM | MCF7 20.1 µM | UACC-62 52.4 µM | BT-549 25.4 µM | NCI-H226 44 µM | NCI-H522 28.3 µM | OVCAR-8 36.6 µM | PC-3 29.2 µM
